EC50 and IC50 data for one molecule are collected here from patent publication US7772180B2, “Hepatitis C virus inhibitors” (Bristol-Myers Squibb Company, priority 2006, dated 2010).

Where two headings read alike, the source gives them in different places.

The subject of assay [1] is HCV replicon (strain 1b) in HUH-7 cells. In words: HCV replicon FRET assay. Type of assay: cell-based, Hepatitis C virus. To be noted: Hepatitis C virus. In general terms: A replicon is a self-replicating genome or part of one, used to study replication in cells.
The test system of assay [2] is HCV replicon with Renilla luciferase reporter in HUH-7 cells. Nature of the assay: HCV replicon luciferase reporter assay. Type of assay: cell-based, Hepatitis C virus. The source says:
An HCV replicon whole cell system was established as described by Lohmann V, Korner F, Koch J, Herian U, Theilmann L, Bartenschlager R., Science 285(5424): 110-3 (1999). This system enabled us to evaluate the effects of our HCV Protease compounds on HCV RNA replication. Briefly, using the HCV strain 1b sequence described in the Lohmann paper (Assession number: AJ238799), an HCV cDNA was synthesized by Operon Technologies, Inc. (Alameda, Calif.), and the full-length replicon was then assembled in plasmid pGem9zf(+) (Promega, Madison, Wis.) using standard molecular biology techniques. The replicon consists of (i) the HCV 5′ UTR fused to the first 12 amino acids of the capsid protein, (ii) the neomycin phosphotransferase gene (neo), (iii) the IRES from encephalomyocarditis virus (EMCV), and (iv) HCV NS3 to NS5B genes and the HCV 3′ UTR. […]
As a secondary assay, EC50 determinations from the replicon FRET assay were confirmed in a replicon luciferase reporter assay. […] Following 4 days in a 37° C./5% CO2 incubator, cells were analyzed for Renilla Luciferase activity using the Promega Dual-Glo Luciferase Assay System. […] Plates were read on a Packard TopCount NXT using a luminescence program.
The percentage inhibition was calculated using the formula below: […]
The values were graphed and analyzed using XLfit to obtain the EC50 value.

The target in assay [3] is T1, human pancreatic chymotrypsin (Homo sapiens, UniProt P17538).
T1 construct: purchased Sigma, EMDbiosciences
Nature of the assay: Specificity assay, chymotrypsin. Type of assay: biochemical. To be noted: read-out: Chymotrypsin activity in the specificity assays (IC50). Here is the method:
(§1) The specificities of compounds of the present disclosure were determined against a variety of serine proteases: human neutrophil elastase (HNE), porcine pancreatic elastase (PPE) and human pancreatic chymotrypsin and one cysteine protease: human liver cathepsin B. In all cases a 96-well plate format protocol using either colorimetric p-nitroaniline (pNA) substrate or fluorometric Amino-Methyl-Coumarin (AMC) specific for each enzyme was used as described previously (PCT Patent Application No. WO 00/09543) with some modifications to the serine protease assays. All enzymes were purchased from Sigma, EMDbiosciences while the substrates were from Bachem, Sigma and EMDbiosciences.
The pNA assay for Chymotrypsin included a 1 h enzyme-inhibitor pre-incubation at room temperature followed by addition of substrate and hydrolysis to ˜15% conversion as measured on a Spectramax Pro microplate reader. Compound concentrations varied from 100 to 0.4 μM depending on their potency. Cathepsin B, HNE, and PPE assays each was initiated by addition of substrate to enzyme-inhibitor pre-incubated for 10 min at room temperature and hydrolysis to 15% conversion as measured on cytofluor. […]
(§2) The percentage of inhibition was calculated using the formula: [1−((UVinh−UVblank)/(UVctl−UVblank))]×100 […]

Assay [4] addresses T2, human neutrophil elastase (HNE) (Homo sapiens, UniProt P08246).
T2 construct: purchased Sigma, EMDbiosciences
T2 sequence (P08246 30-267): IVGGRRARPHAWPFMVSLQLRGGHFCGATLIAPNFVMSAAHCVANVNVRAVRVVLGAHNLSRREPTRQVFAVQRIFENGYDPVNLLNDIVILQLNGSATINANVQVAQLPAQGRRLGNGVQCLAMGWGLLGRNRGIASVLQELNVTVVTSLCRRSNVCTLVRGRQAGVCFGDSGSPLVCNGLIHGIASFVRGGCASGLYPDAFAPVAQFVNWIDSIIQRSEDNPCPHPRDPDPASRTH
In words: Specificity assay, human neutrophil elastase. In kind it is biochemical. To be noted: read-out: HLE activity in the specificity assays (IC50). Here is the method: as §1
The pNA assay for Chymotrypsin included a 1 h enzyme-inhibitor pre-incubation at room temperature followed by addition of substrate and hydrolysis to ˜15% conversion as measured on a Spectramax Pro microplate reader. Compound concentrations varied from 100 to 0.4 μM depending on their potency. Cathepsin B, HNE, and PPE assays each was initiated by addition of substrate to enzyme-inhibitor pre-incubated for 10 min at room temperature and hydrolysis to 15% conversion as measured on cytofluor.
50 mM Tris-HCl, pH 8.0, 50 mM NaCl, 0.1 mM EDTA, 3% DMSO, 0.02% Tween-20, 5 μM succ-AAPV-AMC and 20 nM HNE or 8 nM PPE;
as §2

T1 sequence (P17538 19-263): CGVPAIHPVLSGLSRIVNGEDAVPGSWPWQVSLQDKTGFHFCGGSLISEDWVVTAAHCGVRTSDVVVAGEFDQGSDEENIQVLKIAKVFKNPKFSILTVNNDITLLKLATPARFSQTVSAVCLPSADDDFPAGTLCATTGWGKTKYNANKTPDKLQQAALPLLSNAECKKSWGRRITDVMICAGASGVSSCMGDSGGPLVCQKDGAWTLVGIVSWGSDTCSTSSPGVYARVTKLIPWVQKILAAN

As to `C=C[C@@H]1C[C@]1(NC(=O)[C@@H]1C[C@@H](Oc2nc(N(C)C)cc3cc(OC)ccc23)CN1C(=O)C(Nc1cc(C)cc(C)n1)C(C)(C)C)C(=O)NS(=O)(=O)C1CC1` (single isomer, unassigned) [Compound 18], the concentration for a half-maximal effect (EC50) in assay [1] (Huh-7, read-out: EC50 in the replicon FRET assay, replicon FRET assay) is 9 nM; in assay [1] (Huh-7, read-out: HCV Pro Replicon (EC50), HCV replicon cell assay, activity range class), 3 to 100 nM; in assay [2], 1.1 nM. For the same molecule, the IC50 was > 50000 nM in assay [3] and > 1560 nM in assay [4].

As usually defined, the EC50 is the concentration at which the effect is half-maximal. One may read the IC50 as the concentration that gives 50% inhibition.
